From patent US20070238700A1, “N-PHENYL-1,1,1-TRIFLUOROMETHANESULFONAMIDE HYDRAZONE DERIVATIVE COMPOUNDS AND THEIR USAGE IN CONTROLLING PARASITES” (priority 2006, published 2007)
Where two headings read alike, the source gives them in different places.

Columns and labels:
Ctenocephalides felis [1] = test system: Ctenocephalides felis
Procedure, shortened: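 Adult cat fleas (3–7 days post-emergence), 15 per flask in ≥4 replicates, exposed to a dried acetone residue at 1.26 μg/cm^2 on a Coatasil-treated glass flask base. Held at 25±1° C, 75±5% humidity; mortality (immobile or unable to right) scored at 8, 24 and/or 48 h.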

Ctenocephalides felis [2] = assay: Ctenocephalides felis adulticide assay: C. felis dose response (LC50)
From the text: c) Ctenocephalides felis Adulticide Assay: C. felis Dose Response
The purpose of this example was to determine the LC50 when cat fleas were contacted with a glass surface treated with sample compounds or formulations prepared as described above. […] The test species was the cat flea (Ctenocephalides felis). The strain used was obtained from external suppliers as pupae and held in the laboratory under testing conditions until the adults had emerged. Fifteen (15) fleas were used in a minimum of four replicates for each dose level (total of 60 fleas per dose level). The insects were selected to be in the adult life stage, aged between 3 and 7 days post emergence.
The compounds to be tested were dissolved in acetone just prior to testing. Samples of compounds were stored in a refrigerator (5±1° C.) unless otherwise specified. During the mortality testing, the temperature was maintained at 25±1° C. Humidity was maintained at 75±5%. The base (area=159 mm^2) of a 100 mL glass Erlenmeyer (conical) flask provided the treatment surface. Flasks were pretreated with Coatasil™ glass treatment to maximise bio-availability of test compounds by preventing them from binding to the glass surface.
The base of the 100 mL Erlenmeyer flask was treated with 0.5 mL of test sample in acetone and gently swirled. This volume was sufficient to cover the base of the flask. Flasks were left to dry for 24 hours before flea exposure. Adult cat fleas were lightly anaesthetised by cooling and then placed into a sorting chamber, which allowed fleas to revive and jump into the Erlenmeyer flasks. Fifteen (15) adult cat fleas were collected in each flask. The top of the flasks were then covered in Parafilm™ and small holes made to allow gas exchange. A 0.5 mL volume of acetone was applied to the base of an Erlenmeyer flask and the testing proceeded in the same manner described above. Cat fleas in the treatment containers were held under testing conditions for 24 hours. Mortality resulting from the treatments was recorded at 8 and 24 hours.

Rhipicephalus sanguineus [3] = assay: Rapid screening protocol for topical application on brown dog ticks (% mortality)
Description: d) Rapid Screening Protocol for Topical Application on Brown Dog Ticks (Rhipicephalus sanguineus)
The aim of the test was to determine the presence of significant acaricidal activity in sample compounds or formulations when applied topically on brown dog ticks. A tick was defined as dead if it gave no apparent response when touched lightly and observed for 1 minute. To assess the experimental compound for acaricidal activity, a single dose level was chosen based on known results from previous experiments with a commercially available active reference compound. Both permethrin and fipronil were employed as reference compounds. The insect species tested was the Brown Dog Tick (Rhipicephalus sanguineus). Mixed sex adult ticks were used for tests. The strain used was cultured by von Berky Veterinary Services, Woody Point, QLD, AU and supplied as unfed adult ticks (mixed sex). Ticks were maintained in controlled conditions (temp. 18°±2° C., humidity 75±5% RH).
Test compounds (formulations or active ingredients) were stored in a refrigerator (5±1° C.) unless otherwise specified. Temperature was maintained at 25±1° C. and the humidity was ambient. The screening dose chosen was higher than that known to kill 90% of insects (LD90) using the reference compound. In the case of topical application of active compounds on adult ticks, the reference compound was fipronil and the dose chosen was 10 μg of active per tick (=10 μg of fipronil/1 μl of acetone). Ticks were each treated on the abdomen with 1 μL of a single dose level of test sample in acetone; ten ticks were treated with solvent only (acetone) in each test. Tests were replicated 4 times (total of 40 ticks treated). Ticks were held in recovery containers maintained under appropriate rearing conditions for 24 hours. Mortality resulting from the treatments was recorded at 24 hours. Pooled 24 hour mortality data were converted to percentages.

Rhipicephalus sanguineus [4] = assay: Dose response protocol for topical application on brown dog ticks (LD50); settings: 24 h mortality, probit analysis
Description: e) Dose response protocol for topical application on brown dog ticks (Rhipicephalus sanguineus): The test determines the level of insecticidal activity of sample compounds or formulations when applied topically on brown dog ticks. Sample compounds were stored prior to use in a freezer (−5±1° C.), unless otherwise specified.
• Mortality: A tick is defined as dead after it gives no apparent response when touched lightly or gently breathed upon, while observed for 30 seconds. • LD50 (Lethal Dose 50): The dose of a topically applied treatment at which 50% of the dog ticks are killed. • Reference compound: To assess an experimental compound for significant acaricidal activity a single dose level is chosen, which is based upon known results from previous experiments using a commercially available active i.e., a reference compound. The reference compound selected is one in common use, and one that has a similar mode of action against the Brown Dog Tick (i.e., the test species), • Recovery container: A recovery container consists of a 500 ml round plastic container measuring 115 mm diameter and 70 mm height, with a tight fitting lid that has 10 small (˜1 mm) holes inserted for air exchange. A 90 mm diameter piece of filter paper was placed on the bottom of the container and moistened with 1 mL of distilled water.
Adult, mixed sex, Brown Dog Ticks (Rhipicephalus sanguineus) were reared as follows: (i) cultured, (ii) transferred unfed, to a testing laboratory, and (iii) then maintained under controlled conditions (i.e., temp. 18°±2° C., humidity 75±5% RH). The ticks used were selected for vigor prior to testing, i.e., capable of actively walking and responsive to being touched or gently breathed upon.
During the testing, the temperature was maintained at 25±1° C. and the humidity was ambient. Seven dose levels (concentrations) of sample compound, in the form of serial dilutions in acetone, were derived from a pilot study and covered a range that produced very low to very high mortality. Groups of ten ticks were treated topically (on the abdomen) with 1 μL of a single dose level of the sample compound. Each test was replicated four times, i.e., employing a total of 40 ticks per dose level of each sample compound. As a control, ten ticks were treated with solvent only (acetone) for each test. Following the treatment, the ticks were held in recovery containers maintained under appropriate rearing conditions for 24 hours. Mortality resulting from the treatments was recorded at 24 hours. […] Press, London (1971).]

Row | Structure (SMILES) | C. felis Mortality (%) 24 h (Ctenocephalides felis [1]) | C. felis LC50 (Ctenocephalides felis [2]; data from laboratory 1) | R. sanguineus Mortality (%) 24 h (Rhipicephalus sanguineus [3]; data from laboratory 1) | R. sanguineus Mortality (%) 24 h (Rhipicephalus sanguineus [3]; data from laboratory 2) | C. felis Mortality (%) 8 h (Ctenocephalides felis [1]) | C. felis LC50 (Ctenocephalides felis [2]) | R. sanguineus LD50 (Rhipicephalus sanguineus [4]) | C. felis Mortality (%) 48 h (Ctenocephalides felis [1])
1 | CC(=NN(C)c1ccccc1)c1cc(Cl)ccc1NS(=O)(=O)C(F)(F)F [Compound 9] | 100^B % | 0.86 ppm | 88% | 98% |  |  |  | 
2 | CC(=NN1CCOCC1)c1cc(Cl)ccc1NS(=O)(=O)C(F)(F)F [Compound 20] | 100% |  | 95^A % |  | 100% | 0.86 ppm | 0.75 μg/tick | 
3 | CC(=NN(c1ccccc1)C(C)C)c1cc(Cl)ccc1NS(=O)(=O)C(F)(F)F [Compound 28] | 100% |  |  | 68% |  |  |  | 100%
4 | CC(=NN(c1ccc(Cl)cc1)C(C)C)c1cc(Cl)ccc1NS(=O)(=O)C(F)(F)F [Compound 33] | 86% |  |  | 88% |  |  |  | 100%
5 | CCN(N=C(C)c1cc(Cl)ccc1NS(=O)(=O)C(F)(F)F)c1ccccc1Cl [Compound 37] | 89% |  |  | 83% |  |  |  | 100%
6 | CCN(N=C(C)c1cc(Cl)ccc1N(C)S(=O)(=O)C(F)(F)F)c1ccccc1F [Compound 44] | 3% |  |  | 3% |  |  |  | 22%
7 | CC(=NN(c1ccc(C(F)(F)F)cc1)C(C)C)c1cc(Cl)ccc1NS(=O)(=O)C(F)(F)F [Compound 47] | 100% |  |  | 58% | 14% |  |  | 
8 | CC(=NN(c1cccc(Cl)c1)C(C)C)c1cc(Cl)ccc1NS(=O)(=O)C(F)(F)F [Compound 50] | 100% |  |  | 68% | 61% |  |  | 
9 | CCCN(N=C(C)c1cc(Cl)ccc1NS(=O)(=O)C(F)(F)F)c1ccc(Br)cc1 [Compound 53] | 100% |  |  | 50% | 71% |  |  | 
10 | CC(=NN(c1ccccc1Cl)C(C)C)c1cc(Cl)ccc1NS(=O)(=O)C(F)(F)F [Compound 56] | 99% |  |  | 45% | 51% |  |  | 
11 | CC(=NN(C)c1ccc(Br)cc1)c1cc(Cl)ccc1NS(=O)(=O)C(F)(F)F [Compound 63] | 100% |  |  | 100% | 100% | 2.4 ppm |  | 
12 | CC(=NN(C)c1ccc(C(F)(F)F)cc1)c1cc(Cl)ccc1NS(=O)(=O)C(F)(F)F [Compound 65, N-[2-[1-(N′-methyl-(4-trifluoromethyl)phenyl)hydrazono]-ethyl-4-chlorophenyl]-trifluoromethanesulfonamide] | 100% |  |  | 100% | 100% |  |  | 
13 | CC(=NN(c1cccc(Cl)c1Cl)C(C)C)c1cc(Cl)ccc1NS(=O)(=O)C(F)(F)F [Compound 66] | 100% |  |  | 48% | 18% |  |  | 
14 | CC(=NN(C)c1ccc(C)cc1)c1cc(Cl)ccc1NS(=O)(=O)C(F)(F)F [Compound 75] | 100% |  |  | 100% | 100% | 1.4 ppm |  | 
15 | CC(=NN(c1cccc(F)c1)C(C)C)c1cc(Cl)ccc1NS(=O)(=O)C(F)(F)F [Compound 77] | 100% |  |  | 73% | 91% |  |  | 
16 | CCCN(N=C(C)c1cc(Cl)ccc1NS(=O)(=O)C(F)(F)F)c1ccc(Cl)c(Cl)c1 [Compound 97] | 100% |  |  | 73% | 52% |  |  | 
17 | CCCN(N=C(C)c1cc(Cl)ccc1NS(=O)(=O)C(F)(F)F)c1cc(Cl)cc(Cl)c1 [Compound 98] | 98% |  |  | 60% | 19% |  |  | 
18 | CCCN(N=C(C)c1cc(Cl)ccc1NS(=O)(=O)C(F)(F)F)c1c(Cl)cccc1Cl [Compound 103] | 100% |  |  | 40% | 56% |  |  | 
19 | CCCN(N=C(C)c1cc(Cl)ccc1NS(=O)(=O)C(F)(F)F)c1ccc(F)cc1 [Compound 104] | 100% |  |  | 75% | 16% |  |  | 
20 | CC(=NN(C)c1ccccc1)c1cc(Cl)ccc1N(C)S(=O)(=O)C(F)(F)F [Compound 109, N-[2-[1-(N′-methyl-N′-phenyl)hydrazono]ethyl-4-chlorophenyl]-N-methyl-trifluoromethanesulfonamide] | 100% |  |  | 8% | 73% |  |  | 
21 | CCOCN(c1ccc(Cl)cc1C(C)=NN(C)c1ccccc1)S(=O)(=O)C(F)(F)F [Compound 112] | 100% |  |  | 5% | 99% |  |  | 
22 | CC(=NN(C)c1ccccc1)c1ccc(C(F)(F)F)cc1NS(=O)(=O)C(F)(F)F [Compound 120, N-[2-[1-(N′-methyl-N′-phenyl)hydrazono]-ethyl-5-trifluoromethylphenyl]-trifluoromethanesulfonamide] | 83% |  |  | 58% | 28% |  |  | 
23 | CC(=NN(C)C)c1ccccc1NS(=O)(=O)C(F)(F)F [Compound 124] | 94% |  |  | 88% | 59% |  |  | 
24 | CCC(=NN1CCCCCC1)c1cc(Cl)ccc1NS(=O)(=O)C(F)(F)F [Compound 131] | 100% |  |  | 98% | 43% |  |  | 
25 | C/C(=N\N(CCC#N)C(=O)C(C)C)c1cc(Cl)ccc1NS(=O)(=O)C(F)(F)F [Compound 223] | 100% |  |  | 100% | 45% |  |  | 
